Measured values published in patent publication US9624247B2, “Pyrazolo-pyrrolidin-4-one derivatives as bet inhibitors and their use in the treatment of disease” (NOVARTIS AG, priority 2013, dated 2017).
Like-named read-outs stand apart in the source and are kept apart here.

Columns and labels:
BRD4 (His-Brd4(44-477)) = BRD4 (His-Brd4(44-477)) (Homo sapiens (Human), UniProt O60885); experiment: TR-FRET in-vitro binding assay for BRD4; settings: acetyl-histone H4 peptide
Method: (§1) TR-FRET In-Vitro Binding Assays for BRD2, BRD3, and BRD4:
(§2) All assays were performed in 384 well microtiter plates. Each assay plate contained 8-point serial dilutions for 40 test compounds, plus 16 high- and 16 low controls. Liquid handling and incubation steps were done on an Innovadyne Nanodrop Express equipped with a robotic arm (Thermo CatX, Perkin Elmer/Caliper Twister II) and an incubator (Liconic STX40, Thermo Cytomat 2C450). The assay plates were prepared by addition of 50 nl per well of compound solution in 90% DMSO HummingBird nanodispenser (Zinsser Analytic). The assay was started by stepwise addition of 4.5 μl per well of bromo domain protein (50 mM HEPES, pH 7.5, 0.005% Tween20, 0.1% BSA, 50 mM NaCl, 45 nM His-Brd2(60-472) or 45 nM His-Brd3(20-477) or 45 nM His-Brd4(44-477) all proteins produced in-house) and 4.5 μl per well of peptide solution (50 mM HEPES, pH 7.5, 0.005% Tween20, 0.1% BSA, 50 mM NaCl, 60 nM acetyl-histone H4 (AcK 5, 8, 12, 16) (Biosyntan GmbH)). Reactions were incubated at 30° C. for 35 minutes. […] After 35 minutes incubation at 30° C., plates were measured in a Perkin Elmer EnVision multilabel reader. Concentrations causing 50% inhibition (IC50 values) were determined from percent inhibition values at different compound concentrations by non-linear regression analysis.
(§3) Preparation of Compound Dilutions
(§4) Test compounds were dissolved in DMSO (10 mM) and transferred into 1.4 mL flat bottom or V-shaped Matrix tubes carrying a unique 2D matrix. The stock solutions were stored at […] if not used immediately. For the test procedure the vials were defrosted and identified by a scanner whereby a working sheet was generated that guided the subsequent working steps. Compound dilutions were made in 96 well plates. This format enabled the assay of maximally 40 individual test compounds at 8 concentrations (single points) including 4 reference compounds, if desired (known BET inhibitors from the prior art, for this and other assays of the type disclosed herein). The dilution protocol included the production of “pre-dilution plates”, “master plates” and “assay plates”.
(§5) Pre-dilution plates: 96 polypropylene well plates were used as pre-dilution plates. A total of 4 pre-dilution plates were prepared including 10 test compounds each on the plate positions A1-A10, one standard compound at A11 and one DMSO control at A12. All dilution steps were done on a HamiltonSTAR robot.
(§6) Master plates: 30 μL of individual compound dilutions including standard compound and controls of the 4 “pre-dilution plates” were transferred into a 384 “master plate” including the following concentrations 10000, 3003, 1000, 300, 100, 30, 10 and 3 μM, respectively in 90% of DMSO.
(§7) Assay plates: Identical “assay plates” were then prepared by pipetting 50 nL each of compound dilutions of the “master plates” into 384-well “assay plates” by means of a HummingBird 384-channel dispenser. These plates were used directly for the assay which was performed in a total volume of 13.55 μL. This led to a final compound concentration of 37, 11, 3.7, 1.1, 0.37, 0.11, 0.037 and 0.011 μM and a final DMSO concentration of 0.37% in the assay.

THP-1 cells = experiment: Cell growth inhibition assay (CellTiter-Glo), THP-1; format: cell-based, human; settings: THP-1, 4 days; for GI50: Homo sapiens, 96 h, half-maximal growth inhibition; for THP-1 TGI: total growth inhibition
Method: (§8) Cell Growth Inhibition Assay
(§9) The human leukemia cell lines MV-4-11, THP-1 and K-562 were employed to characterize the effect of BET inhibitors on cellular proliferation and viability. Cells were obtained from the American Type Culture Collection (ATCC) and cultured at 37° C. in a humidified 5% CO2 incubator in the following media: MV-4-11: DMEM high glucose (Animed #1-26F01-I), 10% FCS (Animed #2-01F26-I), 4 mM L-Glutamine (Animed #5-10K50), 1 mM Sodium Pyruvate (Animed #G03625P), lx Penicillin-Streptomycin (Animed #F12478P); K-562: Iscove's MEM (Animed #1-28F16-I), 10% FCS (Animed #2-01F26-I), 4 mM L-Glutamine (Animed #5-10K50), 1× Penicillin-Streptomycin (Animed #F12478P); THP-1: RPMI-1640 (Animed #1-41F01-I), 10% FCS (Animed #2-01F26-I), 2 mM L-Glutamine (Animed #5-10K50), 10 mM HEPES (Animed #5-31F100), 1 mM Sodium Pyruvate (Animed #G03625P), 1× Penicillin-Streptomycin (Animed #F12478P). The AML lines MV-4-11 and THP-1 are very sensitive to BET inhibitors and show massive cell death upon BET inhibition (Zuber et al., Nature, 478 (2011), 524-8). Compound-mediated suppression of cell proliferation/viability was assessed by quantification of cellular ATP levels using the CellTiter-Glo (CTG) reagent (Promega). Briefly, cells were seeded in 20 μl fresh medium into 384-well plates, followed by addition of 5 μl medium containing compound dilutions at 5-fold their final intended concentration. Dose-response effects were assessed by 3-fold serial dilutions of the test compound, starting at 10 μM. Following incubation of the cells for 4 days at 37° C. and 5% CO2, the effect of inhibitors on cell viability was quantified following addition of 20 μl CTG and luminescence quantification (integration time: 100 ms) as per vendor manual, using a correspondingly equipped Tecan M200 multi-mode platereader (TECAN, Switzerland). For data analysis, the assay background value determined in wells containing medium, but no cells, was subtracted from all data points. To enable differentiation of cytotoxic from cytostatic compounds, the number of viable cells is assessed relative to that observed at the time of compound addition using a separate cell plate (day 0). The effect of a particular test compound concentration on cell proliferation/viability is expressed as percentage of the background- and day 0-corrected luminescence reading obtained for cells treated with vehicle only (DMSO, 0.1% final concentration), which is set as 100%, whereas that luminescence reading for wells containing medium is set as −100%. Compound concentrations leading to half-maximal (IC50) and total growth inhibition (TGI) were determined using standard four parameter curve fitting.

BRD2 (His-Brd2(60-472)) = BRD2 (His-Brd2(60-472)) (Homo sapiens (Human), UniProt P25440); experiment: TR-FRET in-vitro binding assay for BRD2; settings: acetyl-histone H4 peptide
Method: as §1, §2, §3, §4, §5, §6, §7

K-562 cells = experiment: Cell growth inhibition assay (CellTiter-Glo), K-562; format: cell-based, human; settings: K-562, 4 days; for GI50: Homo sapiens, K562, 96 h, half-maximal growth inhibition; for K-562 TGI: total growth inhibition
Method: as §8, §9

BRD3 (His-Brd3(20-477)) = BRD3 (His-Brd3(20-477)) (Homo sapiens (Human), UniProt Q15059); experiment: TR-FRET in-vitro binding assay for BRD3; settings: acetyl-histone H4 peptide
Method: as §1
All assays were performed in 384 well microtiter plates. Each assay plate contained 8-point serial dilutions for 40 test compounds, plus 16 high- and 16 low controls. Liquid handling and incubation steps were done on an Innovadyne Nanodrop Express equipped with a robotic arm (Thermo CatX, Perkin Elmer/Caliper Twister II) and an incubator (Liconic STX40, Thermo Cytomat 2C450). The assay plates were prepared by addition of 50 nl per well of compound solution in 90% DMSO HummingBird nanodispenser (Zinsser Analytic). […] Reactions were incubated at 30° C. for 35 minutes. […] After 35 minutes incubation at 30° C., plates were measured in a Perkin Elmer EnVision multilabel reader.
as §3, §4, §5
(§10) These plates were used directly for the assay which was performed in a total volume of 13.55 μL.

[1] = target: CREBBP bromodomain (His-CREBBP(1081-1197)) (Homo sapiens (Human), UniProt Q92793); experiment: AlphaScreen in-vitro binding assay for CREBBP
Method: AlphaScreen In-Vitro Binding Assay for CREBBP
In order to assess bromodomain selectivity, we set up a binding assay using the bromodomain encoded by the CREBBP gene. […] Reactions were incubated at 30° C. for 35 minutes. Subsequently 4.5 μl per well detection mix (50 mM HEPES, pH 7.5, 0.005% Tween20, 0.02% BSA, 150 mM NaCl, 45 μg/ml Ni-chelate acceptor beads, 45 μg/ml streptavidin-donor beads) (Perkin Elmer)) were added. After 60 minutes incubation at room temperature, plates were measured in a Perkin Elmer EnVision multilabel reader. IC50 values were determined from percent inhibition values at different compound concentrations by non-linear regression analysis.
as §3, §4, §5, §10

MV-4-11 cells = experiment: Cell growth inhibition assay (CellTiter-Glo), MV-4-11; format: cell-based, human; settings: MV-4-11, 4 days; for GI50: Homo sapiens, MV4-11, 96 h, half-maximal growth inhibition; for MV-4-11 TGI: total growth inhibition
Method: as §8, §9

[2] = AlphaScreen, acetyl-histone H4 peptide, read-out: CREBBP IC50

BRD2 (His-Brd2(60-472)), sequence (P25440 60-472): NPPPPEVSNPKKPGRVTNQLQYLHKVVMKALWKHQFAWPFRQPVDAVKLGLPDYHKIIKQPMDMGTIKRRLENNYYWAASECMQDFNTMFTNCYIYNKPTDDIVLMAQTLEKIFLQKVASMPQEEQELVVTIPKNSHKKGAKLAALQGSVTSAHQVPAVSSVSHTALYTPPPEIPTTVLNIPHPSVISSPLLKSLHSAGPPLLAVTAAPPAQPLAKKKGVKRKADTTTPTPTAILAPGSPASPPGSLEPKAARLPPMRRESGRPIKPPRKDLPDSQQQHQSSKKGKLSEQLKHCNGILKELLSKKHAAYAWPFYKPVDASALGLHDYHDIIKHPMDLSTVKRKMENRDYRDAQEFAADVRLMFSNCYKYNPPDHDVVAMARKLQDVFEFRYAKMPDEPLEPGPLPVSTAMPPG
BRD3 (His-Brd3(20-477)), sequence (Q15059 20-477): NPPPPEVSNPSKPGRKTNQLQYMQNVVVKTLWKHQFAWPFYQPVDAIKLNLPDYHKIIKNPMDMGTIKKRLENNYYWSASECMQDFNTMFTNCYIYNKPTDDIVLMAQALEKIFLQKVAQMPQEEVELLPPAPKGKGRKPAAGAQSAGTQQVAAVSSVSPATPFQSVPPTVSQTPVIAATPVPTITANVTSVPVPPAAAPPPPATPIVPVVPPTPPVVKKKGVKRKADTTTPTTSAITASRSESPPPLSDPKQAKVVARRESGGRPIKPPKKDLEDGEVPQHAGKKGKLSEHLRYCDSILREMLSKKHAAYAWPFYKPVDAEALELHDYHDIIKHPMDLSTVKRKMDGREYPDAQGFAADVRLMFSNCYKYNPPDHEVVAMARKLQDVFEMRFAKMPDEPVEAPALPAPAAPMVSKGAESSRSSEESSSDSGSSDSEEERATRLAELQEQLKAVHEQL
CREBBP bromodomain (His-CREBBP(1081-1197)), sequence (Q92793 1081-1197): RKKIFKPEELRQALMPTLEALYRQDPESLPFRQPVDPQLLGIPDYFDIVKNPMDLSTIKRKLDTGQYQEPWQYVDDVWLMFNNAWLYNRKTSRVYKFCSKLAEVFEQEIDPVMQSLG

IC50 (BRD4 (His-Brd4(44-477))) | GI50 (THP-1 cells) | IC50 (BRD2 (His-Brd2(60-472))) | GI50 (K-562 cells) | IC50 (BRD3 (His-Brd3(20-477))) | IC50 [1, 2] | GI50 (MV-4-11 cells) | SMILES | THP-1 TGI (THP-1 cells) | K-562 TGI (K-562 cells) | MV-4-11 TGI (MV-4-11 cells) | IC50 [1]
17 nM | 22.3 nM | 31 nM | 78.8 nM | 23 nM | 6600 nM | 13.5 nM | Cc1cc(N2C(=O)c3c(C4CC4)nn(-c4ccnn4C)c3C2c2ccc(Cl)cc2)cc2c1nnn2C (stereo not shown) [Example 21, 6-(4-chlorophenyl)-3-cyclopropyl-5-(1,4-dimethyl-1H-benzo[d][1,2,3]triazol-6-yl)-1-(1-methyl-1H-pyrazol-5-yl)-5,6-dihydropyrrolo[3,4-c]pyrazol-4(1H)-one] | 44.45 nM | >10000 nM | 27.25 nM | 
< 11 nM | 1.88 nM | < 11 nM | 10.4 nM | < 11 nM | 19200 nM | 0.643 nM | Cc1cc(N2C(=O)c3c(C4CC4)nn(C)c3[C@H]2c2ccc(Cl)cc2)nn2c(C)nnc12 [Example 24, (R)-6-(4-chlorophenyl)-3-cyclopropyl-5-(3,8-dimethyl-[1,2,4]triazolo[4,3-b]pyridazin-6-yl)-1-methyl-5,6-dihydropyrrolo[3,4-c]pyrazol-4(1H)-one] | 4.91 nM | >10000 nM | 1.57 nM | 
24 nM | 28.4 nM | 34 nM | 96.5 nM | 22 nM | 5400 nM | 14.2 nM | COc1ncccc1-c1nn(C)c2c1C(=O)N(c1cc(C)c3nnc(C)n3c1)[C@@H]2c1ccc(Cl)cc1 [Example 13, (R)-6-(4-chlorophenyl)-5-(3,8-dimethyl-[1,2,4]triazolo[4,3-a]pyridin-6-yl)-3-(2-methoxypyridin-3-yl)-1-methyl-5,6-dihydropyrrolo[3,4-c]pyrazol-4(1H)-one] | 64.65 nM | >10000 nM | 29.8 nM | 
 | 4.41 nM |  | 14.3 nM |  | 3200 nM | 2.57 nM | Cc1cc(N2C(=O)c3c(C4CC4)nn(C)c3[C@H]2c2ccc(Cl)cc2)cc2c1nnn2C [Example 9, (R)-6-(4-chlorophenyl)-3-cyclopropyl-5-(1,4-dimethyl-1H-benzo[d][1,2,3]triazol-6-yl)-1-methyl-5,6-dihydropyrrolo[3,4-c]pyrazol-4(1H)-one] | 10.76 nM | >10000 nM | 5.745 nM | 
 | 7.29 nM |  | 24.8 nM |  | 4800 nM | 4.71 nM | Cc1cc(N2C(=O)c3c(C4CC4)nn(C)c3C2c2ccc(Cl)cc2)cc2c1nnn2C (racemic) [Example 8, 6-(4-chlorophenyl)-3-cyclopropyl-5-(1,4-dimethyl-1H-benzo[d][1,2,3]triazol-6-yl)-1-methyl-5,6-dihydropyrrolo[3,4-c]pyrazol-4(1H)-one] | 17.6 nM | >10000 nM | 9.53 nM | 

SMILES | IC50 (BRD4 (His-Brd4(44-477))) | GI50 (THP-1 cells) | IC50 (BRD2 (His-Brd2(60-472))) | GI50 (K-562 cells) | IC50 (BRD3 (His-Brd3(20-477))) | IC50 [1, 2] | GI50 (MV-4-11 cells) | THP-1 TGI (THP-1 cells) | K-562 TGI (K-562 cells) | MV-4-11 TGI (MV-4-11 cells) | IC50 [1]
COc1ncccc1-c1n[nH]c2c1C(=O)N(c1cc(C)c3nnc(C)n3c1)C2c1ccc(Cl)cc1 (stereo not shown) [Example 10, 6-(4-chlorophenyl)-5-(3,8-dimethyl-[1,2,4]triazolo[4,3-a]pyridin-6-yl)-3-(2-methoxypyridin-3-yl)-5,6-dihydropyrrolo[3,4-c]pyrazol-4(1H)-one] | 30 nM | 60.4 nM | 48 nM | 135 nM | 45 nM |  | 34.5 nM | 136.8 nM | >10000 nM | 64.3 nM | > 37000 nM
COCCn1nc(C2CC2)c2c1[C@@H](c1ccc(Cl)cc1)N(c1cc(C)c3nnc(C)n3c1)C2=O [Example 15, (R)-6-(4-chlorophenyl)-3-cyclopropyl-5-(3,8-dimethyl-[1,2,4]triazolo[4,3-a]pyridin-6-yl)-1-(2-methoxyethyl)-5,6-dihydropyrrolo[3,4-c]pyrazol-4(1H)-one] | 18 nM | 6.42 nM | 20 nM | 26.5 nM | 16 nM | 6100 nM | 2.41 nM | 13.9 nM | >10000 nM | 5.79 nM | 
